Source: US12473304B2, “Heterocyclic PAD4 inhibitors” (BRISTOL-MYERS SQUIBB COMPANY, priority 2020, dated 2025)

target: human PAD4 (hPAD4) (Homo sapiens (Human), UniProt Q9UM07); test: RFMS Human PAD4 Functional Assay 1; format: biochemical; conditions: RFMS assay 1; 5 nM hPAD4, 250 μM BAEE substrate, 50 μM calcium, 37° C.
Method in brief: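 Recombinant hPAD4 (5 nM) was preincubated with compound (top 50 μM, 0.5% DMSO) for 30 min at 37 °C, then reacted with 250 μM BAEE for 90 min at 37 °C in pH 7.5 HEPES buffer with 50 μM calcium and 5 μM TPEN. Product was derivatized with phenyl glyoxal and quantified by RapidFire MS.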

Chain of human PAD4 (hPAD4) (Q9UM07 whole entry): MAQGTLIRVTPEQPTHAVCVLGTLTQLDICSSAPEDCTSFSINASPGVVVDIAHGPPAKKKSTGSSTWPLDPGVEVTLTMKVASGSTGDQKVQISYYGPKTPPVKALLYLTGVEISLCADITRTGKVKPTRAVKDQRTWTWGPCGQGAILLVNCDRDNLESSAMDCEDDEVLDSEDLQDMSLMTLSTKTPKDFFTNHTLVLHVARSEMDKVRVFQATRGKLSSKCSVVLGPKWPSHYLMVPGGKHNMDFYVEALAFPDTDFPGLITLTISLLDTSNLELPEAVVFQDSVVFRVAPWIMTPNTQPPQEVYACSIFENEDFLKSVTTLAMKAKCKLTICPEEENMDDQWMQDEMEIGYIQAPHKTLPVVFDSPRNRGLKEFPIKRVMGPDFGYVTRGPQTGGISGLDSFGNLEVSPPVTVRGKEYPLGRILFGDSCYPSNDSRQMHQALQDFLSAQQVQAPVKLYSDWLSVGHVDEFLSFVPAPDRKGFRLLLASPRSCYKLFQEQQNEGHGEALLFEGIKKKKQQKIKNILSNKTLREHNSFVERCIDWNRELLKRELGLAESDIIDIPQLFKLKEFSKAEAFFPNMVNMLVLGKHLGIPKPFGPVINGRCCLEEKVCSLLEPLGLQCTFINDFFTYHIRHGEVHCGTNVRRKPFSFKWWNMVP

Structure (SMILES) | IC50 [nM]
COc1cc(C(=O)N2C[C@H](N)C[C@@H](F)C2)cn2nc(-c3cc4ccc(-c5ccc6c(c5)C(=O)NC6)nc4n3CC3CC3)c(C)c12 [Example 16, 6-(2-(6-((3R,5R)-3-Amino-5-fluoropiperidine-1-carbonyl)-4-methoxy-3-methylpyrazolo[1,5-a]pyridin-2-yl)-1-(cyclopropylmethyl)-1H-pyrrolo[2,3-b]pyridin-6-yl)isoindolin-1-one] | 407
COc1cc(C(=O)N2C[C@H](N)C[C@@H](F)C2)cn2nc(-c3cc4ccc(C)nc4n3CC3CC3)c(C)c12 [Example 17, ((3R,5R)-3-Amino-5-fluoropiperidin-1-yl)(2-(1-(cyclopropylmethyl)-6-methyl-1H-pyrrolo[2,3-b]pyridin-2-yl)-4-methoxy-3-methylpyrazolo[1,5-a]pyridin-6-yl)-methanone] | 75
COc1cc(C(=O)N2C[C@H](N)C[C@@H](F)C2)cn2nc(-c3cc4ccc(C5CC5)nc4n3CC3CC3)c(C)c12 [Example 19, ((3R,5R)-3-Amino-5-fluoropiperidin-1-yl)(2-(6-cyclopropyl-1-(cyclopropylmethyl)-1H-pyrrolo[2,3-b]pyridin-2-yl)-4-methoxy-3-methylpyrazolo[1,5-a]pyridin-6-yl)methanone] | 168
COc1cc(C(=O)N2C[C@H](N)C[C@@H](F)C2)cn2nc(-c3cc4ccc(-c5ccc6c(c5)CNC6=O)nc4n3CC3CC3)c(C)c12 [Example 20, 5-(2-(6-((3R,5R)-3-Amino-5-fluoropiperidine-1-carbonyl)-4-methoxy-3-methylpyrazolo[l,5-a]pyridin-2-yl)-1-(cyclopropylmethyl)-1H-pyrrolo[2,3-b]pyridin-6-yl)isoindolin-1-one] | 116
COc1cc(C(=O)N2C[C@H](N)C[C@@H](F)C2)cn2nc(-c3cc4ccc(-c5ccc6c(c5)C(=O)NC6)cc4n3CC3CC3)c(C)c12 [Example 29, 6-(2-(6-((3R,5R)-3-Amino-5-fluoropiperidine-1-carbonyl)-4-methoxy-3-methylpyrazolo[1,5-a]pyridin-2-yl)-1-(cyclopropylmethyl)-1H-indol-6-yl)isoindolin-1-one] | 1020
COc1cc(C(=O)N2C[C@H](N)C[C@@H](F)C2)cn2nc(-c3cc4ccc(-c5ccc6c(c5)CNC6=O)cc4n3CC3CC3)c(C)c12 [Example 30, 5-(2-(6-((3R,5R)-3-Amino-5-fluoropiperidine-1-carbonyl)-4-methoxy-3-methylpyrazolo[1,5-a]pyridin-2-yl)-1-(cyclopropylmethyl)-1H-indol-6-yl)isoindolin-1-one] | 84
COc1cc(C(=O)N2C[C@H](N)C[C@@H](F)C2)cn2nc(-c3cc4ccc(-c5cccc(O)c5F)cc4n3CC3CC3)c(C)c12 [Example 32, ((3R,5R)-3-Amino-5-fluoropiperidin-1-yl)(2-(1-(cyclopropylmethyl)-6-(2-fluoro-3-hydroxyphenyl)-1H-indol-2-yl)-4-methoxy-3-methylpyrazolo[1,5-a]pyridin-6-yl)methanone] | 414
COCC1CN(c2ccc3cc(-c4nn5cc(C(=O)N6C[C@H](N)C[C@@H](F)C6)cc(OC)c5c4C)n(CC4CC4)c3c2)C1 [Example 33, ((3R,5R)-3-Amino-5-fluoropiperidin-1-yl)(2-(1-(cyclopropylmethyl)-6-(3-(methoxymethyl)-azetidin-1-yl)-1H-indol-2-yl)-4-methoxy-3-methylpyrazolo[1,5-a]pyridin-6-yl)methanone] | 534
COc1cc(C(=O)N2C[C@H](N)C[C@@H](F)C2)cn2nc(-c3cc4ccc(N5C[C@H](N)C[C@@H](F)C5)cc4n3CC3CC3)c(C)c12 [Example 34, ((3R,5R)-3-Amino-5-fluoropiperidin-1-yl)(2-(6-((3R,5R)-3-amino-5-fluoropiperidin-1-yl)-1-(cyclopropylmethyl)-1H-indol-2-yl)-4-methoxy-3-methylpyrazolo[1,5-a]pyridin-6-yl)methanone] | 42
COc1cc(C(=O)N2C[C@H](N)C[C@@H](F)C2)cn2nc(-c3cc4ccc(N5CCC(OC)CC5)cc4n3CC3CC3)c(C)c12 [Example 35, ((3R,5R)-3-Amino-5-fluoropiperidin-1-yl)(2-(1-(cyclopropylmethyl)-6-(4-methoxypiperidin-1-yl)-1H-indol-2-yl)-4-methoxy-3-methylpyrazolo[1,5-a]pyridin-6-yl)methanone] | 139
COc1cc(C(=O)N2C[C@H](N)C[C@@H](F)C2)cn2nc(-c3cc4ccc(NC[C@@H](F)C(C)(C)O)cc4n3CC3CC3)c(C)c12 [Example 36, ((3R,5R)-3-Amino-5-fluoropiperidin-1-yl)(2-(1-(cyclopropylmethyl)-6-(((R)-2-fluoro-3-hydroxy-3-methylbutyl)amino)-1H-indol-2-yl)-4-methoxy-3-methylpyrazolo[1,5-a]pyridin-6-yl)methanone] | 782
COc1cc(C(=O)N2C[C@H](N)C[C@@H](F)C2)cn2nc(-c3cc4ccc(N5CC(F)(CO)C5)cc4n3CC3CC3)c(C)c12 [Example 37, ((3R,5R)-3-Amino-5-fluoropiperidin-1-yl)(2-(1-(cyclopropylmethyl)-6-(3-fluoro-3-(hydroxymethyl)azetidin-1-yl)-1H-indol-2-yl)-4-methoxy-3-methylpyrazolo[1,5-a]pyridin-6-yl)methanone] | 3610
Cc1c(-c2cc3cccnc3n2CC2CC2)nn2cc(C(=O)N3CC4CCC3[C@@H]4N)cc(F)c12 (stereo partly drawn) [Example 38, ((7R)-7-Amino-2-azabicyclo[2.2.1]heptan-2-yl)(2-(1-(cyclopropylmethyl)-1H-pyrrolo[2,3-b]pyridin-2-yl)-4-fluoro-3-methylpyrazolo[1,5-a]pyridin-6-yl)methanone] | 158
Cc1c(-c2cc3ccc(Cl)nc3n2CC2CC2)nn2cc(C(=O)N3CC4CCC3[C@@H]4N)cc(F)c12 (stereo partly drawn) [Example 39, ((7R)-7-Amino-2-azabicyclo[2.2.1]heptan-2-yl)(2-(6-chloro-1-(cyclopropylmethyl)-1H-pyrrolo[2,3-b]pyridin-2-yl)-4-fluoro-3-methylpyrazolo[1,5-a]pyridin-6-yl)methanone] | 87
Cc1ccc2cc(-c3nn4cc(C(=O)N5CC6CCC5[C@@H]6N)cc(F)c4c3C)n(CC3CC3)c2n1 (stereo partly drawn) [Example 40, 3((7R)-7-Amino-2-azabicyclo[2.2.1]heptan-2-yl)(2-(1-(cyclopropylmethyl)-6-methyl-1H-pyrrolo[2,3-b]pyridin-2-yl)-4-fluoro-3-methylpyrazolo[1,5-a]pyridin-6-yl)methanone] | 25

The remaining lines, values ahead:

IC50 [nM] | Structure (SMILES)
91 | COc1cc(C(=O)N2C[C@H](N)C[C@@H](F)C2)cn2nc(-c3cc4ccc(-c5ccn6c(C)nnc6c5)nc4n3CC3CC3)c(C)c12 [Example 21, ((3R,5R)-3-Amino-5-fluoropiperidin-1-yl)(2-(1-(cyclopropylmethyl)-6-(3-methyl-[1,2,4]triazolo[4,3-a]pyridin-7-yl)-1H-pyrrolo[2,3-b]pyridin-2-yl)-4-methoxy-3-methylpyrazolo[1,5-a]pyridin-6-yl)methanone]
2150 | COc1cc(C(=O)N2CC3CCC2[C@@H]3N)cn2nc(-c3cc4ccccc4n3CC3CC3)c(C)c12 (stereo partly drawn) [Example 22, ((7R)-7-Amino-2-azabicyclo[2.2.1]heptan-2-yl)(2-(1-(cyclopropylmethyl)-1H-indol-2-yl)-4-methoxy-3-methylpyrazolo[1,5-a]pyridin-6-yl)methanone]
108 | COc1cc(C(=O)N2CC3CCC2[C@@H]3N)cn2nc(-c3cc4ccc(-c5ccc6c(c5)C(=O)NC6)cc4n3CC3CC3)c(C)c12 (stereo partly drawn) [Example 23, 6-(2-(6-((7R)-7-Amino-2-azabicyclo[2.2.1]heptane-2-carbonyl)-4-methoxy-3-methylpyrazolo[1,5-a]pyridin-2-yl)-1-(cyclopropylmethyl)-1H-indol-6-yl)isoindolin-1-one]
31 | COc1cc(C(=O)N2CC3CCC2[C@@H]3N)cn2nc(-c3cc4ccc(-c5ccc6c(c5)CNC6=O)cc4n3CC3CC3)c(C)c12 (stereo partly drawn) [Example 24, 5-(2-(6-((7R)-7-Amino-2-azabicyclo[2.2.1]heptane-2-carbonyl)-4-methoxy-3-methylpyrazolo[1,5-a]pyridin-2-yl)-1-(cyclopropylmethyl)-1H-indol-6-yl)isoindolin-1-one]
17 | COc1cc(C(=O)N2CC3CCC2[C@@H]3N)cn2nc(-c3cc4ccc(-c5ccn6c(C)nnc6c5)cc4n3CC3CC3)c(C)c12 (stereo partly drawn) [Example 25, ((7R)-7-Amino-2-azabicyclo[2.2.1]heptan-2-yl)(2-(1-(cyclopropylmethyl)-6-(3-methyl-[1,2,4]triazolo[4,3-a]pyridin-7-yl)-1H-indol-2-yl)-4-methoxy-3-methylpyrazolo[1,5-a]pyridin-6-yl)methanone]
449 | COc1cc(C(=O)N2CC3CCC2[C@@H]3N)cn2nc(-c3cc4ccc(-c5ccc(OC(F)F)cc5)cc4n3CC3CC3)c(C)c12 (stereo partly drawn) [Example 26, ((7R)-7-Amino-2-azabicyclo[2.2.1]heptan-2-yl)(2-(1-(cyclopropylmethyl)-6-(4-(difluoromethoxy)phenyl)-1H-indol-2-yl)-4-methoxy-3-methylpyrazolo[1,5-a]pyridin-6-yl)methanone]
22 | COc1cc(C(=O)N2CC3CCC2[C@@H]3N)cn2nc(-c3cc4ccc(C)cc4n3CC3CC3)c(C)c12 (stereo partly drawn) [Example 27, ((7R)-7-Amino-2-azabicyclo[2.2.1]heptan-2-yl)(2-(1-(cyclopropylmethyl)-6-methyl-1H-indol-2-yl)-4-methoxy-3-methylpyrazolo[1,5-a]pyridin-6-yl)methanone]
65 | COc1cc(C(=O)N2C[C@H](N)C[C@@H](F)C2)cn2nc(-c3cc4ccc(-c5ccn6c(C)nnc6c5)cc4n3CC3CC3)c(C)c12 [Example 31, ((3R,5R)-3-Amino-5-fluoropiperidin-1-yl)(2-(1-(cyclopropylmethyl)-6-(3-methyl-[1,2,4]triazolo[4,3-a]pyridin-7-yl)-1H-indol-2-yl)-4-methoxy-3-methylpyrazolo[1,5-a]pyridin-6-yl)methanone]
